Assay results taken from BigSolDB 2.1.

O=c1nc[nH]c2[nH]ncc12
Details | solubility (mole fraction)
in 1,4-dioxane, 283.15 K | 2.91e-05
in 1,4-dioxane, 288.15 K | 3.71e-05
in 1,4-dioxane, 293.15 K | 4.64e-05
in 1,4-dioxane, 298.15 K | 5.74e-05
in 1,4-dioxane, 303.15 K | 7.03e-05
in 1,4-dioxane, 308.15 K | 8.43e-05
in 1,4-dioxane, 313.15 K | 0.000102
in 1,4-dioxane, 318.15 K | 0.000123
in 1,4-dioxane, 323.15 K | 0.000148
in 1,4-dioxane, 328.15 K | 0.000178
in 1,4-dioxane, 333.15 K | 0.000204
in 2-butanone, 278.15 K | 0.000783
in 2-butanone, 283.15 K | 0.000954
in 2-butanone, 288.15 K | 0.00115
in 2-butanone, 293.15 K | 0.00138
in 2-butanone, 298.15 K | 0.00165
in 2-butanone, 303.15 K | 0.00196
in 2-butanone, 308.15 K | 0.00231
in 2-butanone, 313.15 K | 0.00271
in 2-butanone, 318.15 K | 0.00316
in 2-butanone, 323.15 K | 0.00367
in 2-butanone, 328.15 K | 0.00425
in 2-butanone, 333.15 K | 0.00491
in DMF, 278.15 K | 0.00223
in DMF, 283.15 K | 0.00266
in DMF, 288.15 K | 0.00316
in DMF, 293.15 K | 0.00373
in DMF, 298.15 K | 0.00437
in DMF, 303.15 K | 0.00509
in DMF, 308.15 K | 0.00591
in DMF, 313.15 K | 0.00683
in DMF, 318.15 K | 0.00785
in DMF, 323.15 K | 0.00898
in DMF, 328.15 K | 0.01
in DMF, 333.15 K | 0.0121
in NMP, 278.15 K | 0.0151
in NMP, 283.15 K | 0.017
in NMP, 288.15 K | 0.02
in NMP, 293.15 K | 0.022
in NMP, 298.15 K | 0.0251
in NMP, 303.15 K | 0.0281
in NMP, 308.15 K | 0.032
in NMP, 313.15 K | 0.035
in NMP, 318.15 K | 0.0391
in NMP, 323.15 K | 0.0431
in NMP, 328.15 K | 0.0481
in NMP, 333.15 K | 0.0531
in acetone, 278.15 K | 0.000653
in acetone, 283.15 K | 0.000797
in acetone, 288.15 K | 0.000966
in acetone, 293.15 K | 0.00116
in acetone, 298.15 K | 0.00139
in acetone, 303.15 K | 0.00166
in acetone, 308.15 K | 0.00196
in acetone, 313.15 K | 0.00231
in acetone, 318.15 K | 0.0027
in acetone, 323.15 K | 0.00314
in acetone, 328.15 K | 0.00365
in acetone, 333.15 K | 0.00421
in acetonitrile, 278.15 K | 9.6e-05
in acetonitrile, 283.15 K | 0.000117
in acetonitrile, 288.15 K | 0.000141
in acetonitrile, 293.15 K | 0.00017
in acetonitrile, 298.15 K | 0.000204
in acetonitrile, 303.15 K | 0.000239
in acetonitrile, 308.15 K | 0.000286
in acetonitrile, 313.15 K | 0.000331
in acetonitrile, 318.15 K | 0.000384
in acetonitrile, 323.15 K | 0.000448
in acetonitrile, 328.15 K | 0.000522
in acetonitrile, 333.15 K | 0.00059
in cyclohexane, 283.15 K | 4.74e-07
in cyclohexane, 288.15 K | 6.38e-07
in cyclohexane, 293.15 K | 7.68e-07
in cyclohexane, 298.15 K | 1.02e-06
in cyclohexane, 303.15 K | 1.24e-06
in cyclohexane, 308.15 K | 1.61e-06
in cyclohexane, 313.15 K | 1.97e-06
in cyclohexane, 318.15 K | 2.48e-06
in cyclohexane, 323.15 K | 3.05e-06
in cyclohexane, 328.15 K | 3.77e-06
in cyclohexane, 333.15 K | 4.37e-06
in ethanol, 278.15 K | 2.46e-05
in ethanol, 283.15 K | 3.28e-05
in ethanol, 288.15 K | 4.27e-05
in ethanol, 293.15 K | 5.5e-05
in ethanol, 298.15 K | 6.99e-05
in ethanol, 303.15 K | 8.97e-05
in ethanol, 308.15 K | 0.000109
in ethanol, 313.15 K | 0.000139
in ethanol, 318.15 K | 0.000172
in ethanol, 323.15 K | 0.000211
in ethanol, 328.15 K | 0.000258
in ethanol, 333.15 K | 0.00031
in isopropanol, 278.15 K | 3.64e-05
in isopropanol, 283.15 K | 4.68e-05
in isopropanol, 288.15 K | 5.84e-05
in isopropanol, 293.15 K | 7.35e-05
in isopropanol, 298.15 K | 9.2e-05
in isopropanol, 303.15 K | 0.000112
in isopropanol, 308.15 K | 0.000138
in isopropanol, 313.15 K | 0.000171
in isopropanol, 318.15 K | 0.000204
in isopropanol, 323.15 K | 0.000245
in isopropanol, 328.15 K | 0.000296
in isopropanol, 333.15 K | 0.000346
in methanol, 278.15 K | 2.05e-05
in methanol, 283.15 K | 2.7e-05
in methanol, 288.15 K | 3.61e-05
in methanol, 293.15 K | 4.65e-05
in methanol, 298.15 K | 5.97e-05
in methanol, 303.15 K | 7.6e-05
in methanol, 308.15 K | 9.62e-05
in methanol, 313.15 K | 0.00012
in methanol, 318.15 K | 0.000152
in methanol, 323.15 K | 0.000189
in methanol, 328.15 K | 0.000235
in methanol, 333.15 K | 0.000283
in n-butanol, 278.15 K | 6.63e-05
in n-butanol, 283.15 K | 8.13e-05
in n-butanol, 288.15 K | 0.0001
in n-butanol, 293.15 K | 0.000124
in n-butanol, 298.15 K | 0.000151
in n-butanol, 303.15 K | 0.000184
in n-butanol, 308.15 K | 0.000219
in n-butanol, 313.15 K | 0.00026
in n-butanol, 318.15 K | 0.000312
in n-butanol, 323.15 K | 0.000366
in n-butanol, 328.15 K | 0.000429
in n-butanol, 333.15 K | 0.000496
in n-heptanol, 278.15 K | 0.000127
in n-heptanol, 283.15 K | 0.000149
in n-heptanol, 288.15 K | 0.000175
in n-heptanol, 293.15 K | 0.000205
in n-heptanol, 298.15 K | 0.000239
in n-heptanol, 303.15 K | 0.000276
in n-heptanol, 308.15 K | 0.000318
in n-heptanol, 313.15 K | 0.000365
in n-heptanol, 318.15 K | 0.000418
in n-heptanol, 323.15 K | 0.000473
in n-heptanol, 328.15 K | 0.000544
in n-heptanol, 333.15 K | 0.000614
in n-hexanol, 278.15 K | 8.05e-05
in n-hexanol, 283.15 K | 9.84e-05
in n-hexanol, 288.15 K | 0.000119
in n-hexanol, 293.15 K | 0.000145
in n-hexanol, 298.15 K | 0.000177
in n-hexanol, 303.15 K | 0.000214
in n-hexanol, 308.15 K | 0.000259
in n-hexanol, 313.15 K | 0.000302
in n-hexanol, 318.15 K | 0.00036
in n-hexanol, 323.15 K | 0.00042
in n-hexanol, 328.15 K | 0.000499
in n-hexanol, 333.15 K | 0.000566
in n-propanol, 278.15 K | 4.85e-05
in n-propanol, 283.15 K | 6.16e-05
in n-propanol, 288.15 K | 7.66e-05
in n-propanol, 293.15 K | 9.52e-05
in n-propanol, 298.15 K | 0.000114
in n-propanol, 303.15 K | 0.00014
in n-propanol, 308.15 K | 0.000164
in n-propanol, 313.15 K | 0.000201
in n-propanol, 318.15 K | 0.000247
in n-propanol, 323.15 K | 0.000293
in n-propanol, 328.15 K | 0.000349
in n-propanol, 333.15 K | 0.000403
in water, 278.15 K | 8.71e-06
in water, 283.15 K | 1.18e-05
in water, 288.15 K | 1.57e-05
in water, 293.15 K | 2.12e-05
in water, 298.15 K | 2.94e-05
in water, 303.15 K | 3.83e-05
in water, 308.15 K | 5.01e-05
in water, 313.15 K | 6.44e-05
in water, 318.15 K | 8.32e-05
in water, 323.15 K | 0.000107
in water, 328.15 K | 0.000134
in water, 333.15 K | 0.000167
